Experimental data reported in patent US20200032271A1, “COMBINATION THERAPY WITH LIPOSOMAL ANTISENSE OLIGONUCLEOTIDES” (Bio-Path Holdings, Inc., priority 2016, published 2020).
Marks after values point to notes of the source that are not given here. [PEt] = P-ethoxy (ethyl phosphotriester) internucleoside linkage

Test: Adverse events in study 2003-0578 (NCI CTCAE grading)
[1] = MDS at enrollment (n = 4), all treatment groups

BP1001: liposome-incorporated P-ethoxy antisense oligodeoxynucleotide (5′-ATATTTGGCGATGGCTTC-3′, SEQ ID NO: 1) specific to grb2 mRNA, in neutral DOPC liposomes (DNA, all [PEt], methylation of C not given here; incorporated in neutral DOPC liposomes)
Hyponatremia ≥Grade 3, number of patients [1]: 0 | Hypotension ≥Grade 3, number of patients [1]: 0 | Hypovolemia ≥Grade 3, number of patients [1]: 0 | Hypoxia ≥Grade 3, number of patients [1]: 0 | Investigations ≥Grade 3, number of patients [1]: 0 | Leukocytosis ≥Grade 3, number of patients [1]: 0 | Metabolism and nutritional disorders ≥Grade 3, number of patients [1]: 0 | Multi-organ failure ≥Grade 3, number of patients [1]: 0 | Musculoskeletal and connective tissue disorders ≥Grade 3, number of patients [1]: 0 | Neoplasms benign, malignant, and unspecified (incl. cysts and polyps) ≥Grade 3, number of patients [1]: 0 | Patients with AEs ≥Grade 3, number of patients [1]: 1 | Penile Pain ≥Grade 3, number of patients [1]: 0 | Platelet count decreased ≥Grade 3, number of patients [1]: 0 | Pleural Effusions ≥Grade 3, number of patients [1]: 0 | Pneumonia ≥Grade 3, number of patients [1]: 0 | Psychiatric disorders ≥Grade 3, number of patients [1]: 0 | Renal and urinary disorders ≥Grade 3, number of patients [1]: 0 | Reproductive system and breast disorders ≥Grade 3, number of patients [1]: 0 | Respiratory distress ≥Grade 3, number of patients [1]: 0 | Respiratory failure ≥Grade 3, number of patients [1]: 0 | Respiratory, thoracic, and mediastinal disorders ≥Grade 3, number of patients [1]: 0 | Tumor lysis syndrome ≥Grade 3, number of patients [1]: 0 | Vascular disorders ≥Grade 3, number of patients [1]: 0 | Blood and lymphatic system disorders ≥Grade 3, total events (all patients (N = 39)): 12 | Blood and lymphatic system disorders ≥Grade 3, total patients (all patients (N = 39)): 11 | Cardiac disorders ≥Grade 3, total events (all patients (N = 39)): disorders (3/3) | Cardiac disorders ≥Grade 3, total patients (all patients (N = 39)): disorders (3/3) | General disorders and administration site conditions ≥Grade 3, total events (all patients (N = 39)): (5/5) | General disorders and administration site conditions ≥Grade 3, total patients (all patients (N = 39)): (5/5) | Hepatobiliary disorders ≥Grade 3, total events (all patients (N = 39)): disorders (2/2) | Hepatobiliary disorders ≥Grade 3, total patients (all patients (N = 39)): disorders (2/2) | Investigations ≥Grade 3, total events (all patients (N = 39)): 3 | Investigations ≥Grade 3, total patients (all patients (N = 39)): 2 | Metabolism and nutritional disorders ≥Grade 3, total events (all patients (N = 39)): 19 | Metabolism and nutritional disorders ≥Grade 3, total patients (all patients (N = 39)): 12 | Neoplasms benign, malignant, and unspecified (incl. cysts and polyps) ≥Grade 3, total events (all patients (N = 39)): polyps) (2/2) | Neoplasms benign, malignant, and unspecified (incl. cysts and polyps) ≥Grade 3, total patients (all patients (N = 39)): polyps) (2/2) | Patients with AEs ≥Grade 3, total events (all patients (N = 39)): 91 | Patients with AEs ≥Grade 3, total patients (all patients (N = 39)): 28 | Renal and urinary disorders ≥Grade 3, total events (all patients (N = 39)): disorders (4/4) | Renal and urinary disorders ≥Grade 3, total patients (all patients (N = 39)): disorders (4/4) | Respiratory, thoracic, and mediastinal disorders ≥Grade 3, total events (all patients (N = 39)): disorders (7/7) | Respiratory, thoracic, and mediastinal disorders ≥Grade 3, total patients (all patients (N = 39)): disorders (7/7) | Vascular disorders ≥Grade 3, total events (all patients (N = 39)): disorders (2/2) | Vascular disorders ≥Grade 3, total patients (all patients (N = 39)): disorders (2/2) | AML progression, number of patients (monotherapy 5 mg/m^2 (n = 13)): 10 | Abdominal Pain ≥Grade 3, number of patients (monotherapy 5 mg/m^2 (n = 13)): 0 | Acidosis ≥Grade 3, number of patients (monotherapy 5 mg/m^2 (n = 13)): 2 | Acute kidney injury ≥Grade 3, number of patients (monotherapy 5 mg/m^2 (n = 13)): 3 | Asthenia ≥Grade 3, number of patients (monotherapy 5 mg/m^2 (n = 13)): 1 | Back Pain ≥Grade 3, number of patients (monotherapy 5 mg/m^2 (n = 13)): 0 | Blood and lymphatic system disorders ≥Grade 3, number of patients (monotherapy 5 mg/m^2 (n = 13)): 5 | Cardiac disorders ≥Grade 3, number of patients (monotherapy 5 mg/m^2 (n = 13)): 3 | Cataract ≥Grade 3, number of patients (monotherapy 5 mg/m^2 (n = 13)): 0 | Dyspnea ≥Grade 3, number of patients (monotherapy 5 mg/m^2 (n = 13)): 0 | Extremity Lower Edema ≥Grade 3, number of patients (monotherapy 5 mg/m^2 (n = 13)): 0 | Eye disorders ≥Grade 3, number of patients (monotherapy 5 mg/m^2 (n = 13)): 0 | Febrile neutropenia ≥Grade 3, number of patients (monotherapy 5 mg/m^2 (n = 13)): 2 | Gastrointestinal disorders ≥Grade 3, number of patients (monotherapy 5 mg/m^2 (n = 13)): 0 | General disorders and administration site conditions ≥Grade 3, number of patients (monotherapy 5 mg/m^2 (n = 13)): 3 | Hallucinations ≥Grade 3, number of patients (monotherapy 5 mg/m^2 (n = 13)): 0 | Heart failure ≥Grade 3, number of patients (monotherapy 5 mg/m^2 (n = 13)): 3 | Hepatic failure ≥Grade 3, number of patients (monotherapy 5 mg/m^2 (n = 13)): 1 | Hepatobiliary disorders ≥Grade 3, number of patients (monotherapy 5 mg/m^2 (n = 13)): 1 | Hypocalcemia ≥Grade 3, number of patients (monotherapy 5 mg/m^2 (n = 13)): 1 | Hypoglycemia ≥Grade 3, number of patients (monotherapy 5 mg/m^2 (n = 13)): 2 | Hypokalemia ≥Grade 3, number of patients (monotherapy 5 mg/m^2 (n = 13)): 1 | Hyponatremia ≥Grade 3, number of patients (monotherapy 5 mg/m^2 (n = 13)): 1 | Hypotension ≥Grade 3, number of patients (monotherapy 5 mg/m^2 (n = 13)): 2 | Hypovolemia ≥Grade 3, number of patients (monotherapy 5 mg/m^2 (n = 13)): 0 | Hypoxia ≥Grade 3, number of patients (monotherapy 5 mg/m^2 (n = 13)): 1 | Investigations ≥Grade 3, number of patients (monotherapy 5 mg/m^2 (n = 13)): 1 | Leukocytosis ≥Grade 3, number of patients (monotherapy 5 mg/m^2 (n = 13)): 3 | Metabolism and nutritional disorders ≥Grade 3, number of patients (monotherapy 5 mg/m^2 (n = 13)): 12 | Multi-organ failure ≥Grade 3, number of patients (monotherapy 5 mg/m^2 (n = 13)): 2 | Musculoskeletal and connective tissue disorders ≥Grade 3, number of patients (monotherapy 5 mg/m^2 (n = 13)): 0 | Neoplasms benign, malignant, and unspecified (incl. cysts and polyps) ≥Grade 3, number of patients (monotherapy 5 mg/m^2 (n = 13)): 0 | Patients with AEs ≥Grade 3, number of patients (monotherapy 5 mg/m^2 (n = 13)): 10 | Penile Pain ≥Grade 3, number of patients (monotherapy 5 mg/m^2 (n = 13)): 0 | Platelet count decreased ≥Grade 3, number of patients (monotherapy 5 mg/m^2 (n = 13)): 1 | Pneumonia ≥Grade 3, number of patients (monotherapy 5 mg/m^2 (n = 13)): 0 | Psychiatric disorders ≥Grade 3, number of patients (monotherapy 5 mg/m^2 (n = 13)): 0 | Renal and urinary disorders ≥Grade 3, number of patients (monotherapy 5 mg/m^2 (n = 13)): 3 | Reproductive system and breast disorders ≥Grade 3, number of patients (monotherapy 5 mg/m^2 (n = 13)): 0 | Respiratory distress ≥Grade 3, number of patients (monotherapy 5 mg/m^2 (n = 13)): 1 | Respiratory failure ≥Grade 3, number of patients (monotherapy 5 mg/m^2 (n = 13)): 2 | Respiratory, thoracic, and mediastinal disorders ≥Grade 3, number of patients (monotherapy 5 mg/m^2 (n = 13)): 2 | Tumor lysis syndrome ≥Grade 3, number of patients (monotherapy 5 mg/m^2 (n = 13)): 3 | Vascular disorders ≥Grade 3, number of patients (monotherapy 5 mg/m^2 (n = 13)): 2 | AML progression, number of patients (monotherapy 10 mg/m^2 (n = 6)): 4 | Abdominal Pain ≥Grade 3, number of patients (monotherapy 10 mg/m^2 (n = 6)): 0 | Acidosis ≥Grade 3, number of patients (monotherapy 10 mg/m^2 (n = 6)): 1 | Acute kidney injury ≥Grade 3, number of patients (monotherapy 10 mg/m^2 (n = 6)): 0 | Asthenia ≥Grade 3, number of patients (monotherapy 10 mg/m^2 (n = 6)): 0 | Back Pain ≥Grade 3, number of patients (monotherapy 10 mg/m^2 (n = 6)): 0 | Blood and lymphatic system disorders ≥Grade 3, number of patients (monotherapy 10 mg/m^2 (n = 6)): 2 | Cardiac disorders ≥Grade 3, number of patients (monotherapy 10 mg/m^2 (n = 6)): 0 | Cataract ≥Grade 3, number of patients (monotherapy 10 mg/m^2 (n = 6)): 0 | Dyspnea ≥Grade 3, number of patients (monotherapy 10 mg/m^2 (n = 6)): 0 | Extremity Lower Edema ≥Grade 3, number of patients (monotherapy 10 mg/m^2 (n = 6)): 0 | Eye disorders ≥Grade 3, number of patients (monotherapy 10 mg/m^2 (n = 6)): 0 | Febrile neutropenia ≥Grade 3, number of patients (monotherapy 10 mg/m^2 (n = 6)): 1^a | Gastrointestinal disorders ≥Grade 3, number of patients (monotherapy 10 mg/m^2 (n = 6)): 0 | General disorders and administration site conditions ≥Grade 3, number of patients (monotherapy 10 mg/m^2 (n = 6)): 1 | Hallucinations ≥Grade 3, number of patients (monotherapy 10 mg/m^2 (n = 6)): 0 | Heart failure ≥Grade 3, number of patients (monotherapy 10 mg/m^2 (n = 6)): 0 | Hepatic failure ≥Grade 3, number of patients (monotherapy 10 mg/m^2 (n = 6)): 1 | Hepatobiliary disorders ≥Grade 3, number of patients (monotherapy 10 mg/m^2 (n = 6)): 1 | Hypocalcemia ≥Grade 3, number of patients (monotherapy 10 mg/m^2 (n = 6)): 0 | Hypoglycemia ≥Grade 3, number of patients (monotherapy 10 mg/m^2 (n = 6)): 0 | Hypokalemia ≥Grade 3, number of patients (monotherapy 10 mg/m^2 (n = 6)): 1 | Hyponatremia ≥Grade 3, number of patients (monotherapy 10 mg/m^2 (n = 6)): 0 | Hypotension ≥Grade 3, number of patients (monotherapy 10 mg/m^2 (n = 6)): 0
